According to publication PMC5290327, “SC83288 is a clinical development candidate for the treatment of severe malaria” (Nature Communications, 2017):
≈ marks a conversion by molar mass, not a printed value. Where “and” joins values, the source holds several entries; their conditions need not be identical. Equal values may be shown once. Entries after “also recorded” stand apart in the source; their conditions may differ.

Key:
[1] = system: P. falciparum strain 3D7; assay: Growth inhibition assay; type: cell-based; conditions: Plasmodium falciparum
[2] = system: Na+ channel (site 2); assay: Radioligand binding
[3] = system: Plasmodium vinckei; assay: Rodent malaria model; type: in vivo
Text: The two SC compounds were also active in the Plasmodium vinckei rodent malaria model system.

[4] = Stability in physiological solutions; type: physicochemical; conditions: artificial gastric juice, simulated intestinal fluid, PBS, human plasma; 6 h at 37 °C
Method: SC81458 and SC83288 were soluble in water (890 and 940 μg ml^−1, respectively) and organic solvents. […] The compounds were stable in different physiological solutions, including artificial gastric juice, simulated intestinal fluid, phosphate-buffered saline and human plasma, when incubated for 6 h at 37 °C.

[5] = target: T1, H1 (h) (Homo sapiens, UniProt P35367); type: binding
T1 construct: Cerep

[6] = target: T2, CXCR2 (IL-8B) (h) (Homo sapiens, UniProt P25025); assay: Radioligand binding
T2 construct: Cerep
T2 sequence (P25025 1-360): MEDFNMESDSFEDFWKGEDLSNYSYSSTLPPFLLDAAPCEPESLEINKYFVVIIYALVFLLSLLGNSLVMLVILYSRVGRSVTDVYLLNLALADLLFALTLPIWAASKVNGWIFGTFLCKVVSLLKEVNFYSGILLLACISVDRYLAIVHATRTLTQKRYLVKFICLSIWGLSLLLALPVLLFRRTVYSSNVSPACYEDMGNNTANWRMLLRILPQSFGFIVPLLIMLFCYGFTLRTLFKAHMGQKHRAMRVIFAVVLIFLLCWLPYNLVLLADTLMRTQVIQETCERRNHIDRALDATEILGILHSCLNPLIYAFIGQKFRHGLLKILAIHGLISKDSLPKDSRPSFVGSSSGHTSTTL

[7] = target: T3, dopamine transporter (h) (Homo sapiens, UniProt Q01959); assay: Radioligand binding
T3 construct: Cerep (contract screening)

[8] = system: P. falciparum strain D10; assay: Growth inhibition assay; type: cell-based; conditions: Plasmodium falciparum
[9] = system: a2 (non-selective); assay: Radioligand binding
Method: (§1) The study was carried out by Cerep (Celle l'Evescault, France). An in vitro pharmacological profiling panel was designed to detect potential high-risk clinical adverse drug reactions. The panel comprised of 54 targets.
(§2) The specific ligand binding to the receptors was defined as the difference between the total binding and the non-specific binding determined in the presence of an excess of unlabelled ligand. Results were expressed as a per cent of control specific binding and as a per cent inhibition of control specific obtained in the presence of the test compounds. Results showing an inhibition (or stimulation) >50% were considered to represent significant effects of the test compounds. […] The IC50 values were determined by non-linear regression analysis of the competition curves generated with mean replicate values using Hill equation curve fitting. The inhibition constants (Ki) were calculated using the Cheng Prusoff equation.

[10] = target: T4, 5-HT2B (h) (Homo sapiens, UniProt P41595); assay: Radioligand binding
T4 construct: Cerep (contract screening)
Method: as §1, §2

[11] = system: sst (non-selective); assay: Radioligand binding
Method: as §1, §2

[12] = system: a1 (non-selective); assay: Radioligand binding
Method: as §1, §2

[13] = system: Ca2+ channel (L, verapamil site); assay: Radioligand binding
Method: as §1, §2

[14] = system: Cl- channel (GABA-gated); assay: Radioligand binding
[15] = target: T5, M2 (h) (Homo sapiens, UniProt P08172); assay: Radioligand binding
T5 construct: Cerep

[16] = target: T6, M1 (h) (Homo sapiens, UniProt P11229); type: binding
T6 construct: Cerep

[17] = Solubility in water; conditions: water
[18] = target: T7, 5-HT5a (h) (Homo sapiens, UniProt P47898); assay: Radioligand binding
T7 construct: Cerep (contract screening)

[19] = system: HepG2 cells; assay: Cytotoxicity; conditions: 50 μM
[20] = target: T8, A1 (h) (Homo sapiens, UniProt P30542); assay: Radioligand binding
T8 construct: Cerep (contract study)

[21] = target: T9, M3 (h) (Homo sapiens, UniProt P20309); assay: Radioligand binding
T9 construct: Cerep

[22] = target: CYP2B6 (Homo sapiens, UniProt P20813); assay: CYP inhibition, human liver microsomes; conditions: CYP2B6, bupropion to OH-bupropion, 10 µM
[23] = target: T10, norepinephrine transporter (h) (Homo sapiens, UniProt P23975); assay: Radioligand binding
T10 construct: Cerep (contract screening)

[24] = target: T11, 5-HT6 (h) (Homo sapiens, UniProt P50406); assay: Radioligand binding
T11 construct: Cerep (contract screening)

[25] = Permeability assay; type: in vitro ADME; conditions: human; CACO 2 cells, 10 μM, apical side, 2 h
Method: The study was conducted by Cyprotex (Macclesfield, United Kingdom). CACO 2 cells (Sigma-Aldrich, catalogue: 86010202) were seeded on Millipore Millicell plates and formed a confluent monolayer over 20 days before the experiment. On day 20, the tested compounds at a final concentration of 10 μM were added to the apical side of the membrane. The transport of the compound across the monolayer was monitored over a 2 h period by liquid chromatography (LC)–MS/MS quantification. The permeability coefficient (Papp) was calculated from the following equation: [drawing 1] , where dQ/dt is the rate of permeation of the drug across the cells, C0 the donor compartment concentration at time zero and A the area of the cell monolayer. C0 was obtained from analysis of the dosing solution at the start of the experiment.

[26] = target: T12, b1 (h) (Homo sapiens, UniProt P08588); assay: Radioligand binding
T12 construct: Cerep (contract study)

[27] = system: cytoplasmic free Ca2+ in P. falciparum HB3 trophozoites; assay: Ca2+ live imaging, Fluo-4; conditions: SC compounds 10 and 20 μM; CPA 10 μM
[28] = target: T13, 5-HT7 (h) (Homo sapiens, UniProt P34969); assay: Radioligand binding
T13 construct: Cerep (contract screening)

[29] = P. vinckei, 30 mg kg-1 i.p. 1x4 days

T5 sequence (P08172 whole entry): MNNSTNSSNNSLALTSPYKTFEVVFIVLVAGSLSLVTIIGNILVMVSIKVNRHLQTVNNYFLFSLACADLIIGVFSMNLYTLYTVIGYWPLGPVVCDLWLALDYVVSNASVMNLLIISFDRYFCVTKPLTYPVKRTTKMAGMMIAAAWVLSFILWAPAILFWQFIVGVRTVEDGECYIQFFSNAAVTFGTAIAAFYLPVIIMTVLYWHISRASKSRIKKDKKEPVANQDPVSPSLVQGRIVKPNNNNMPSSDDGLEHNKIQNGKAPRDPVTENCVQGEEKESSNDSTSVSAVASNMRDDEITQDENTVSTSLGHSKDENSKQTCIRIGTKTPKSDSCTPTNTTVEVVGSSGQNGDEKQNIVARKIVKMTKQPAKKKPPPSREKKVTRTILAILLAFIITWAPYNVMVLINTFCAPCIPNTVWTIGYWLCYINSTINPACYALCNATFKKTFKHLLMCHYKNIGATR
T3 sequence (Q01959 whole entry): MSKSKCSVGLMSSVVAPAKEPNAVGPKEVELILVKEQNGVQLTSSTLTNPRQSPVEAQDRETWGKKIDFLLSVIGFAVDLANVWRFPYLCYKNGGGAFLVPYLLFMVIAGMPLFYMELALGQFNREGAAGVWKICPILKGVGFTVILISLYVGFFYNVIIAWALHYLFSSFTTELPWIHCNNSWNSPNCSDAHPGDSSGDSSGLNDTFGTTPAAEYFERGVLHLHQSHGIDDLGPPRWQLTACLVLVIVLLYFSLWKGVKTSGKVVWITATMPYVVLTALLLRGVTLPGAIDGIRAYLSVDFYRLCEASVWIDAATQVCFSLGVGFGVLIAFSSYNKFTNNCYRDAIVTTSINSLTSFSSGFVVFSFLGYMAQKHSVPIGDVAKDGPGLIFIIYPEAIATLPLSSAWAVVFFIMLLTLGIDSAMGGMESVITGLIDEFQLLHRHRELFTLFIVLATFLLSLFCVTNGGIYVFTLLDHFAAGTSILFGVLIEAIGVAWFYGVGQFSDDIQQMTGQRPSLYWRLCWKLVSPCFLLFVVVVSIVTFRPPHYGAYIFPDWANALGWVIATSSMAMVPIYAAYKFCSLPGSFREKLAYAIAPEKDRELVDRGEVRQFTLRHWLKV
T4 sequence (P41595 whole entry): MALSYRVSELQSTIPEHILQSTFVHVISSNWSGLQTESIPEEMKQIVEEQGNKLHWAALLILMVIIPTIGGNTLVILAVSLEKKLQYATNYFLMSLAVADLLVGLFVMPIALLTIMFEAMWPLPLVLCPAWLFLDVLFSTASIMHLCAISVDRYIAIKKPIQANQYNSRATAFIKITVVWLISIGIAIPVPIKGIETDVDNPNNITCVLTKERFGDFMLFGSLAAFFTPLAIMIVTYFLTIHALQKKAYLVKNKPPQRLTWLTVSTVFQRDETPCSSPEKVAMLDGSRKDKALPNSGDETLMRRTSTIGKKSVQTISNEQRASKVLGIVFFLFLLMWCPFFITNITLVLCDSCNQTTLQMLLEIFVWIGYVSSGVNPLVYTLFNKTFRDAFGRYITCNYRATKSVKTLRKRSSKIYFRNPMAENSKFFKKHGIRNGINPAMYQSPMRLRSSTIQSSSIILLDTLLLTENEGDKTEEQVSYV
T7 sequence (P47898 whole entry): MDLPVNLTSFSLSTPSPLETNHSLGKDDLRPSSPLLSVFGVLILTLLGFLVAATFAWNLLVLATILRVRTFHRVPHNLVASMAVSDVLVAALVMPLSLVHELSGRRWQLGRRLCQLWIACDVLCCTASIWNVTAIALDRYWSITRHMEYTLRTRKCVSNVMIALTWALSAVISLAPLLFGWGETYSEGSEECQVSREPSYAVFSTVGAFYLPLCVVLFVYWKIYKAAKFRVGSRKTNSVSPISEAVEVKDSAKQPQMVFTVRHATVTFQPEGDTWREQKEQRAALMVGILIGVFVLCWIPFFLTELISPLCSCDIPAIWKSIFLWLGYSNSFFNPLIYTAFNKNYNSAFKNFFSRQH
T12 sequence (P08588 whole entry): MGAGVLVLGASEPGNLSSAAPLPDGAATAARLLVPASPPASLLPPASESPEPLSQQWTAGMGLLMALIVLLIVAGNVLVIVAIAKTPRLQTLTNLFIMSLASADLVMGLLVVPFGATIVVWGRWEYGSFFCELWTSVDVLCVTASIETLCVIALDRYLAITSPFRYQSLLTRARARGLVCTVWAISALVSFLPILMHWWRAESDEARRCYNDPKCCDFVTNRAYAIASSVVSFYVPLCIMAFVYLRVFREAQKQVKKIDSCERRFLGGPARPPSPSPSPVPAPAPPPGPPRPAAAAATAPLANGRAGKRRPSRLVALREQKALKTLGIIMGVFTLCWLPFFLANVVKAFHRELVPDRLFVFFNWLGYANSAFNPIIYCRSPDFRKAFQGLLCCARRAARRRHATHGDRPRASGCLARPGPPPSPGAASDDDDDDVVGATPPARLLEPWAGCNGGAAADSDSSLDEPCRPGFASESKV
T11 sequence (P50406 whole entry): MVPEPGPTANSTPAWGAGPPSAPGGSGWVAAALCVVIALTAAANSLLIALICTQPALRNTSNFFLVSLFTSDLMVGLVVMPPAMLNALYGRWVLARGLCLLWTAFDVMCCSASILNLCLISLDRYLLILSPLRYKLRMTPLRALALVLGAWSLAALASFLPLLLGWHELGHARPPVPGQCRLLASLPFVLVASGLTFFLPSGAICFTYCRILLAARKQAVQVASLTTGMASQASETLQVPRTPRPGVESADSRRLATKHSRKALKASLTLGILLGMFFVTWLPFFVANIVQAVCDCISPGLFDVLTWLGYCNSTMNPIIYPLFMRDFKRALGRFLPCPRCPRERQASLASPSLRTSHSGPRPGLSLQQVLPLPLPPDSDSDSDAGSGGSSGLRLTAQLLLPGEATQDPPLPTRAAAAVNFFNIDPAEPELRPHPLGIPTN
Sequence of CYP2B6 (P20813 whole entry): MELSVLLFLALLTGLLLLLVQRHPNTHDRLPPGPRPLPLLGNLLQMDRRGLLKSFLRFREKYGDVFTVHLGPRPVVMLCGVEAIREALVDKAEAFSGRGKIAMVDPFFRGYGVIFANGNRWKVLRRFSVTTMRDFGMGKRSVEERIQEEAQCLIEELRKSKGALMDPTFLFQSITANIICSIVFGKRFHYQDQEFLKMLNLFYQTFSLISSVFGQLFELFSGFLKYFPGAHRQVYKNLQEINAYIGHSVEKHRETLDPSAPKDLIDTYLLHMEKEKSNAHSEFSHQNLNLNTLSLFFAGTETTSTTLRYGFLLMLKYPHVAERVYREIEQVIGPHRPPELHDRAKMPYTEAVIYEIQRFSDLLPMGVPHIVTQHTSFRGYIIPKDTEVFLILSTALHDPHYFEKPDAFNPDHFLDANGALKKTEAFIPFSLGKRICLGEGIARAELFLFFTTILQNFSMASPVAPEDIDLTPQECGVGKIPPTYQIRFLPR
T10 sequence (P23975 whole entry): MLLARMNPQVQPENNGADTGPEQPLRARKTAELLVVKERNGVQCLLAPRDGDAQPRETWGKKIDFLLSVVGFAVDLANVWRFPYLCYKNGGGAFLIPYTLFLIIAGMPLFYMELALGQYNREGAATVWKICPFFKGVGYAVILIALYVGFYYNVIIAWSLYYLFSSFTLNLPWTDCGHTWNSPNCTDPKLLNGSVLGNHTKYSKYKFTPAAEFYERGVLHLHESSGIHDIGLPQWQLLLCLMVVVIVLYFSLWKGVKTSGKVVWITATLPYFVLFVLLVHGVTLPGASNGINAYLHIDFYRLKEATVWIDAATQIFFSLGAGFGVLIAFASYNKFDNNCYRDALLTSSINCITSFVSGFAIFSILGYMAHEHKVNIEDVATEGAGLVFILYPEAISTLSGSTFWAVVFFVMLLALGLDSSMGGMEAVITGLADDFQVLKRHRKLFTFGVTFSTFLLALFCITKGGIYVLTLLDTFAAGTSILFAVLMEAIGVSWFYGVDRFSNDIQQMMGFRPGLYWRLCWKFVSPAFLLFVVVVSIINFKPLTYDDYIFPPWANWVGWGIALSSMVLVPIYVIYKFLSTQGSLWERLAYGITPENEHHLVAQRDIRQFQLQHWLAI
T1 sequence (P35367 whole entry): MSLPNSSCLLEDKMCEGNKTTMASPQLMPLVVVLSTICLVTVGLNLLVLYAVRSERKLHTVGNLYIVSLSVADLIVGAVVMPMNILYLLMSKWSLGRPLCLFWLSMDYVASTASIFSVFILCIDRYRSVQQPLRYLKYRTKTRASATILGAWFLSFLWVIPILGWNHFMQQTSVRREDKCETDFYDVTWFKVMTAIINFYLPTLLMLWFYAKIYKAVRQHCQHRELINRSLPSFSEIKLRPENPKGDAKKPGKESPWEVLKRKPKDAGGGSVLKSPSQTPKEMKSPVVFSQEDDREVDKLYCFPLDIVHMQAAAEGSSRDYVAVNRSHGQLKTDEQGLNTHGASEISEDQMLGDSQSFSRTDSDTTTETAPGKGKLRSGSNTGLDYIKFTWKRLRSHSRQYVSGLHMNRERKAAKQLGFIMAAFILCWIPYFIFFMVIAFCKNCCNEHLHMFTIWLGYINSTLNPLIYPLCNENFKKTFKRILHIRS
T13 sequence (P34969 whole entry): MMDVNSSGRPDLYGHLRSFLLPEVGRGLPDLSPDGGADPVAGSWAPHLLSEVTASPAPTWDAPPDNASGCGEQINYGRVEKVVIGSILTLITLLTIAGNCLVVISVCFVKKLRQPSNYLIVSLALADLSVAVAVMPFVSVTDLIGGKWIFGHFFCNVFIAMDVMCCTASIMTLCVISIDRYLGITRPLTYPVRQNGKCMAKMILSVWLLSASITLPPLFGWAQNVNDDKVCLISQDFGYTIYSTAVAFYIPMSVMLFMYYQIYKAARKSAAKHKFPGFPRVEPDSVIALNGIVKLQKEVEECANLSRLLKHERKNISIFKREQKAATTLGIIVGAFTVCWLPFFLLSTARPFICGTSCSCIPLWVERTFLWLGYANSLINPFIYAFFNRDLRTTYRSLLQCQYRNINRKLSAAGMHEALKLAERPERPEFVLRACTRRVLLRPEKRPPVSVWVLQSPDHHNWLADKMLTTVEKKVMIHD

SMILES: COC(=O)N1CCN(C(=N)c2cccc(NC(=O)Nc3ccc(S(=O)(=O)NCc4ccc(S(N)(=O)=O)cc4)cc3)c2)CC1 [SC83288, methyl 4-(imino(3-(3-(4-(N-(4-sulfamoylbenzyl)sulfamoyl)phenyl)ureido)phenyl)methyl) piperazine-1-carboxylate]
- IC50 [1]: 8 ± 2 nM
- Inhibition of control specific binding [2]: 19%
- Outcome ([3]; P. vinckei, 20 mg kg-1 i.p. 1x4 days): complete clearance, no recrudescence; also recorded: fully cured the infection
- stability in physiological solutions [4]: stable
- Inhibition of control specific binding [5]: 8%
- Inhibition of control specific binding [6]: -1%
- Inhibition of control specific binding [7]: 82%
- IC50 [8]: 5 ± 1 nM
- Inhibition of control specific binding [9]: 14%
- Inhibition of control specific binding [10]: 17%
- Inhibition of control specific binding [11]: 4%
- Inhibition of control specific binding [12]: 9%
- Inhibition of control specific binding [13]: 14%
- Inhibition of control specific binding [14]: -37%
- Inhibition of control specific binding [15]: 68%
- Inhibition of control specific binding [16]: 75%
- solubility [17]: 940 µg/mL (≈ 1490 µM)
- Inhibition of control specific binding [18]: 16%
- in vitro propagation / cytotoxicity [19]: did not affect
- Inhibition of control specific binding [20]: 8%
- Inhibition of control specific binding [21]: 55%
- Remaining enzyme activity [22]: 95%
- Inhibition of control specific binding [23]: 59%
- Inhibition of control specific binding [24]: 11%
- Papp at 2 h, 10 μM [25]: 0.42 ×10⁻⁶ cm/s
- Inhibition of control specific binding [26]: 7%
- effect on cytoplasmic free Ca^2+ [27]: did not affect
- Inhibition of control specific binding [28]: 4%

SMILES: CCCCN1CCN(C(=N)c2cccc(NC(=O)Nc3ccc(S(=O)(=O)NCc4ccc(S(N)(=O)=O)cc4)cc3)c2)CC1 [SC81458, 4-(3-(3-((4-butylpiperazin-1-yl)(imino)methyl)phenyl)ureido)-N-(4-sulfamoylbenzyl) benzenesulfonamide]
- IC50 [1]: 13 ± 1 nM
- Inhibition of control specific binding [2]: 45%
- parasitemia in treated mice at day 5 ([3]; 30 mg kg^−1 per day for 4 days): 3.3%
- Outcome [3, 29]: rescrudescence; also recorded: all treated mice died of a recrudescent parasitemia
- Outcome: decrease of parasitemia [3, 29]: > 90% and 97%
- stability in physiological solutions [4]: stable
- Inhibition of control specific binding [5]: 6%
- Inhibition of control specific binding [6]: -8%
- Inhibition of control specific binding [7]: 79%
- IC50 [8]: 9 ± 4 nM
- Inhibition of control specific binding [9]: 21%
- Inhibition of control specific binding [10]: 37%
- Inhibition of control specific binding [11]: -2%
- Inhibition of control specific binding [12]: 21%
- Inhibition of control specific binding [13]: 17%
- Inhibition of control specific binding [14]: -28%
- Inhibition of control specific binding [15]: 45%
- Inhibition of control specific binding [16]: 36%
- solubility [17]: 890 µg/mL (≈ 1420 µM)
- Inhibition of control specific binding [18]: 1%
- in vitro propagation / cytotoxicity [19]: did not affect
- Inhibition of control specific binding [20]: 7%
- Inhibition of control specific binding [21]: 48%
- Remaining enzyme activity [22]: 87%
- Inhibition of control specific binding [23]: 73%
- Inhibition of control specific binding [24]: -2%
- Papp at 2 h, 10 μM [25]: 0.76 ×10⁻⁶ cm/s
- Inhibition of control specific binding [26]: -2%
- effect on cytoplasmic free Ca^2+ [27]: did not affect
- Inhibition of control specific binding [28]: 19%
